Measured values from patent US9850283B2, “Macrocyclic inhibitors of the PD-1/PD-L1 and CD80(B7-1)/PD-L1 protein/protein interactions” (BRISTOL-MYERS SQUIBB COMPANY, priority 2013, dated 2017).
Where two headings read alike, the source gives them in different places. Starred links: 1 amine or outer side, 2 acyl side, 3 side chain; linkers in the order of their positions; H or OH if unused. Positions of bridges follow the written chain, without caps; N, C: chain ends. Non-standard residues stand in square brackets, D forms with d. Residues, ends and D or L forms follow the SMILES beside them. ξ: configuration not given here. X9 = O=C([C@@H]1C[C@@H](Oc2nc3ccccc3cc2Br)CN1[*:1])[*:2]; Phe(3,4,5-F3) = N[C@@H](Cc1cc(F)c(F)c(F)c1)C(=O)O; Phe(3-OMe) = COc1cccc(C[C@H](N)C(=O)O)c1; Pro(4R-NH2) = N[C@H]1CN[C@H](C(=O)O)C1; Bta = N[C@@H](Cc1csc2ccccc12)C(=O)O; cisHyp = O=C(O)[C@@H]1C[C@H](O)CN1; Hyp = O=C(O)[C@@H]1C[C@@H](O)CN1; NMeF = CN[C@@H](Cc1ccccc1)C(=O)O; AllylGly = C=CC[C@H](N)C(=O)O; Chg = N[C@H](C(=O)O)C1CCCCC1; NMeNle = CCCC[C@H](NC)C(=O)O; NMeM = CN[C@@H](CCSC)C(=O)O; hSer = N[C@@H](CCO)C(=O)O; NMeA = CN[C@@H](C)C(=O)O; Orn = NCCC[C@H](N)C(=O)O; Dab = NCC[C@H](N)C(=O)O; dAze = O=C(O)[C@H]1CCN1; Dap = NC[C@H](N)C(=O)O; ξC = NC(CS)C(=O)O; Sar = CNCC(=O)O

Key:
Human PD-L1/PD-1 = target: T1, Human PD-L1/PD-1 (Homo sapiens, UniProt Q9NZQ7); assay: HTRF PD-1-Ig/PD-L1-His binding assay (human PD-L1); conditions: cluster symbol; read-out: HTRF IC50 cluster
T1 construct: made in house; host or cells: HEK293T
Method in brief: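 Ig- and His-fused extracellular PD-1/PD-L1 binding in BSA/Tween-20 dPBS. HTRF with Eu anti-Ig (1 nM final) and APC anti-His (20 nM final).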

[1] = target: T2, LK35.2-hPD-L1 cells / PE-labeled PD-1-Ig (Homo sapiens, UniProt Q9NZQ7); assay: LK35.2-hPD-L1 cell binding high-content screening assay; assay type: cell-based; conditions: cluster symbol, read-out: CBA IC50 cluster
T2 construct: expressed in transfected cells; host or cells: LK35.2 mouse B cell line
Method in brief: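 Mouse LK35.2 B cells stably overexpressing human PD-L1 were cultured overnight in RPMI with 10% FCS, then given compound and PE-labeled human PD-1-Ig (1 nM final) for 1 h at 37 °C. After three dPBS washes, bound fluorescence was quantified by high-content imaging.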

[2] = cell line of CBA not given (LK35.2-hPD-L1 or 293T-hPD-L1)
[3] = cell binding assay, cell line not given

T1 sequence (Q9NZQ7 with tags, fused parts or gaps): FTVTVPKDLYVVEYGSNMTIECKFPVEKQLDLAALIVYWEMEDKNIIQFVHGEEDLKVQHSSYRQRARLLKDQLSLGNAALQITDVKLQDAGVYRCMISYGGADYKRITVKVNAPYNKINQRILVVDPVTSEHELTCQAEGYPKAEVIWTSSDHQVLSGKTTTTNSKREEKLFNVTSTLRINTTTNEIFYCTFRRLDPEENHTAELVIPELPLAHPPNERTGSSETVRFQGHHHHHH
T2 sequence (Q9NZQ7 19-290): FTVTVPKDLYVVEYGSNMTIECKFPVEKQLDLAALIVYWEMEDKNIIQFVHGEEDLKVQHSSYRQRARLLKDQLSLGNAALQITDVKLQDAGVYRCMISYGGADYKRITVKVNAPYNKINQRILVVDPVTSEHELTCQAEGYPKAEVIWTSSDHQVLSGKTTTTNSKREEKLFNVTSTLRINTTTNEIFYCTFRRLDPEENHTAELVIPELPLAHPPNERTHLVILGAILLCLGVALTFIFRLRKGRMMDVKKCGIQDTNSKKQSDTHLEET

IC50 (Human PD-L1/PD-1) | IC50 [1, 2] | IC50 [1, 3] | Compound
> 30.5 nM | 4.78 to 72.9 nM | – | CCCC[C@H]1C(=O)N(C)CC(=O)N[C@@H](CC(=O)O)C(=O)N[C@@H](C2CCCCC2)C(=O)N(C)[C@@H](Cc2ccccc2)C(=O)N[C@@H](Cc2ccc(O)cc2)C(=O)N(C)CC(=O)N[C@@H](Cc2c[nH]c3ccccc23)C(=O)N[C@@H](Cc2ccc(O)cc2)C(=O)N[C@@H](CC(C)C)C(=O)N[C@H](C(=O)NCC(N)=O)CSCC(=O)N[C@@H](Cc2ccccc2)C(=O)N(C)[C@@H](Cc2ccccc2)C(=O)N1C [Example 3158] ({CH2CO}-F[NMeF][NMeNle][Sar]D[Chg][NMeF]Y[Sar]WYLCG-NH2; thioether N-13)
> 30.5 nM | – | > 74.3 nM | CCCC[C@H]1C(=O)N(C)[C@@H](CCCC)C(=O)N[C@@H](CCCNC(=N)N)C(=O)N[C@H](C(=O)NCC(N)=O)CSCC(=O)N[C@@H](Cc2ccccc2)C(=O)N(C)[C@@H](C)C(=O)N[C@@H](CC(N)=O)C(=O)N2CCC[C@H]2C(=O)N[C@@H](Cc2cnc[nH]2)C(=O)N[C@@H](CO)C(=O)N(C)CC(=O)N[C@@H](Cc2c[nH]c3ccccc23)C(=O)N[C@@H](CO)C(=O)N[C@@H](Cc2c[nH]c3ccccc23)C(=O)N1C [Example 6010] ({CH2CO}-F[NMeA]NPHS[Sar]WSW[NMeNle][NMeNle]RCG-NH2; thioether N-14)
0.385 to 6.74 nM | 0.158 to 4.71 nM | – | CCCC[C@H]1C(=O)N2CCC[C@@H]2C(=O)N2C[C@H](N)C[C@H]2C(=O)N[C@@H](C(C)C)C(=O)N(C)[C@@H](Cc2ccccc2)C(=O)N[C@@H](Cc2ccc(O)cc2)C(=O)N2CC[C@@H]2C(=O)N[C@@H](Cc2c[nH]c3ccccc23)C(=O)N[C@@H](Cc2ccc(O)cc2)C(=O)N[C@@H](CC(C)C)C(=O)N[C@H](C(=O)NCC(N)=O)CSCC(=O)N[C@@H](Cc2cc(F)c(F)c(F)c2)C(=O)N(C)[C@@H](Cc2ccccc2)C(=O)N1C [Example 3192] ({CH2CO}-[Phe(3,4,5-F3)][NMeF][NMeNle][dP][Pro(4R-NH2)]V[NMeF]Y[dAze]WYLCG-NH2; thioether N-13)
> 30.5 nM | – | > 74.3 nM | CCCC[C@H]1C(=O)N(C)CC(=O)N[C@@H](CC(=O)O)C(=O)N[C@@H](C(C)C)C(=O)N(C)[C@@H](Cc2ccccc2)C(=O)N[C@@H](Cc2ccc(O)cc2)C(=O)N(C)CC(=O)N[C@@H](Cc2cccc(OC)c2)C(=O)N[C@@H](Cc2ccc(O)cc2)C(=O)N[C@@H](CC(C)C)C(=O)N[C@H](C(=O)NCC(N)=O)CSCC(=O)N[C@@H](Cc2ccccc2)C(=O)N(C)[C@@H](Cc2ccccc2)C(=O)N1C [Example 3548] ({CH2CO}-F[NMeF][NMeNle][Sar]DV[NMeF]Y[Sar][Phe(3-OMe)]YLCG-NH2; thioether N-13)
0.385 to 6.74 nM | – | 4.78 to 72.9 nM | CCCC[C@H]1C(=O)N(C)[C@@H](CCCC)C(=O)N[C@@H](CC(C)C)C(=O)N[C@H](C(=O)NCC(N)=O)CSCC(=O)N[C@@H](Cc2ccc(O)cc2)C(=O)N(C)[C@@H](C)C(=O)N[C@@H](CC(N)=O)C(=O)N2CCC[C@H]2C(=O)N[C@@H](CN)C(=O)N[C@@H](CC(C)C)C(=O)N2C[C@H](Oc3nc4ccccc4cc3Br)C[C@H]2C(=O)N[C@@H](Cc2c[nH]c3ccccc23)C(=O)N[C@@H](CCN)C(=O)N[C@@H](Cc2c[nH]c3ccccc23)C(=O)N1C [Example 6049] ({CH2CO}-Y[NMeA]NP[Dap]L[X9]W[Dab]W[NMeNle][NMeNle]LCG-NH2; thioether N-14)
6.76 to 30.3 nM | 0.158 to 4.71 nM | – | CCCC[C@H]1C(=O)N(C)[C@@H](CCCC)C(=O)N[C@@H](CCCN)C(=O)N[C@H](C(=O)NCC(N)=O)CSCC(=O)N[C@@H](Cc2ccc(O)cc2)C(=O)N(C)[C@@H](C)C(=O)N[C@@H](CC(N)=O)C(=O)N2CCC[C@H]2C(=O)N[C@@H](Cc2cnc[nH]2)C(=O)N[C@@H](CC(C)C)C(=O)N2C[C@@H](O)C[C@H]2C(=O)N[C@@H](Cc2c[nH]c3ccccc23)C(=O)N[C@@H](CO)C(=O)N[C@@H](Cc2csc3ccccc23)C(=O)N1C [Example 1051] ({CH2CO}-Y[NMeA]NPHL[cisHyp]WS[Bta][NMeNle][NMeNle][Orn]CG-NH2; thioether N-14)
0.385 to 6.74 nM | – | 0.158 to 4.71 nM | C=CC[C@@H]1NC(=O)[C@H](Cc2c[nH]c3ccccc23)NC(=O)[C@@H]2CCCN2C(=O)[C@H](CC(C)C)NC(=O)[C@H](Cc2cnc[nH]2)NC(=O)[C@@H]2CCCN2C(=O)[C@H](CC(N)=O)NC(=O)[C@H](C)N(C)C(=O)[C@H](Cc2ccc(O)cc2)NC(=O)CSC[C@@H](C(=O)NCC(N)=O)NC(=O)[C@H](CC=C)NC(=O)[C@H](CCCC)N(C)C(=O)[C@H](CCCC)N(C)C(=O)[C@H](Cc2c[nH]c3ccccc23)NC1=O [Example 7014] ({CH2CO}-Y[NMeA]NPHLPW[AllylGly]W[NMeNle][NMeNle][AllylGly]CG-NH2; thioether N-14)
6.76 to 30.3 nM | 4.78 to 72.9 nM | – | CCCC[C@H]1C(=O)N(C)CC(=O)N[C@@H](CC(=O)O)C(=O)N[C@@H](C(C)C)C(=O)N(C)[C@@H](Cc2ccccc2)C(=O)N[C@@H](Cc2ccc(O)cc2)C(=O)N(C)CC(=O)N[C@@H](Cc2c[nH]c3ccccc23)C(=O)N[C@@H](Cc2ccc(O)cc2)C(=O)N[C@@H](CCCN)C(=O)N[C@H](C(=O)NCC(N)=O)CSCC(=O)N[C@@H](Cc2ccccc2)C(=O)N(C)[C@@H](Cc2ccccc2)C(=O)N1C [Example 3163] (HELM PEPTIDE1{[O=C(C[*:3])[*:2]].F.[meF].[CCCC[C@@H](C(=O)[*:2])N(C)[*:1]].[Sar].D.V.[meF].Y.[Sar].W.Y.[Orn].C.G.[am]}$PEPTIDE1,PEPTIDE1,1:R3-14:R3$$$V2.0)
0.385 to 6.74 nM | – | 0.158 to 4.71 nM | CCCC[C@H]1C(=O)N[C@@H](CCCNC(=N)N)C(=O)NC(C(=O)NCC(N)=O)CSCC(=O)N[C@@H](Cc2ccc(O)cc2)C(=O)N(C)[C@@H](C)C(=O)N[C@@H](CC(N)=O)C(=O)N2CCC[C@H]2C(=O)N[C@@H](CO)C(=O)N[C@@H](CC(C)C)C(=O)N2C[C@H](O)C[C@H]2C(=O)N[C@@H](Cc2c[nH]c3ccccc23)C(=O)N[C@@H](CO)C(=O)N[C@@H](Cc2c[nH]c3ccccc23)C(=O)N(C)[C@@H](CCSC)C(=O)N1C (stereo partly shown) [Example 9100] ({CH2CO}-Y[NMeA]NPSL[Hyp]WSW[NMeM][NMeNle]R[ξC]G-NH2; thioether N-14)
6.76 to 30.3 nM | – | 4.78 to 72.9 nM | CCCC[C@H]1C(=O)N[C@@H](CCCNC(=N)N)C(=O)NC(C(=O)NCC(N)=O)CSCC(=O)N[C@@H](Cc2ccc(O)cc2)C(=O)N(C)[C@@H](C)C(=O)N[C@@H](CC(N)=O)C(=O)N2CCC[C@H]2C(=O)N[C@@H](Cc2cnc[nH]2)C(=O)N[C@@H](CO)C(=O)N2C[C@H](O)C[C@H]2C(=O)N[C@@H](Cc2c[nH]c3ccccc23)C(=O)N[C@@H](CO)C(=O)N[C@@H](Cc2c[nH]c3ccccc23)C(=O)N(C)[C@@H](CCSC)C(=O)N1C (stereo partly shown) [Example 9113] ({CH2CO}-Y[NMeA]NPHS[Hyp]WSW[NMeM][NMeNle]R[ξC]G-NH2; thioether N-14)
0.385 to 6.74 nM | 0.158 to 4.71 nM | – | CCCC[C@H]1C(=O)N(C)[C@@H](CCCC)C(=O)N[C@@H](CCCNC(=N)N)C(=O)N[C@H](C(=O)NCC(N)=O)CSCC(=O)N[C@@H](Cc2ccccc2)C(=O)N(C)[C@@H](C)C(=O)N[C@@H](CC(N)=O)C(=O)N2CCC[C@H]2C(=O)N[C@@H](Cc2cnc[nH]2)C(=O)N[C@@H](CC(C)C)C(=O)N2C[C@H](O)C[C@H]2C(=O)N[C@@H](Cc2c[nH]c3ccccc23)C(=O)N[C@@H](CO)C(=O)N[C@@H](Cc2c[nH]c3ccccc23)C(=O)N1C [Example 1087] ({CH2CO}-F[NMeA]NPHL[Hyp]WSW[NMeNle][NMeNle]RCG-NH2; thioether N-14)
0.385 to 6.74 nM | – | 0.158 to 4.71 nM | CCCC[C@H]1C(=O)N(C)[C@@H](CCCC)C(=O)N[C@@H](CCCNC(=N)N)C(=O)NC(C(=O)NCC(N)=O)CSCC(=O)N[C@@H](Cc2ccc(O)cc2)C(=O)N(C)[C@@H](C)C(=O)N[C@@H](CC(N)=O)C(=O)N2CCC[C@H]2C(=O)N[C@@H](Cc2cnc[nH]2)C(=O)N[C@@H](CC(C)C)C(=O)N2C[C@H](O)C[C@H]2C(=O)N[C@@H](Cc2c[nH]c3ccccc23)C(=O)N[C@@H](CCO)C(=O)N[C@@H](Cc2csc3ccccc23)C(=O)N1C (stereo partly shown) [Example 9048] ({CH2CO}-Y[NMeA]NPHL[Hyp]W[hSer][Bta][NMeNle][NMeNle]R[ξC]G-NH2; thioether N-14)
0.385 to 6.74 nM | – | 0.158 to 4.71 nM | CCCC[C@H]1C(=O)N(C)[C@@H](CCCC)C(=O)N[C@@H](CCCNC(=N)N)C(=O)NC(C(=O)NCC(N)=O)CSCC(=O)N[C@@H](Cc2ccc(O)cc2)C(=O)N(C)[C@@H](C)C(=O)N[C@@H](CC(N)=O)C(=O)N2CCC[C@H]2C(=O)N[C@@H](Cc2cnc[nH]2)C(=O)N[C@@H](CC(C)C)C(=O)N2CCC[C@H]2C(=O)N[C@@H](Cc2c[nH]c3ccccc23)C(=O)N[C@@H](CCO)C(=O)N[C@@H](Cc2csc3ccccc23)C(=O)N1C (stereo partly shown) [Example 9052] ({CH2CO}-Y[NMeA]NPHLPW[hSer][Bta][NMeNle][NMeNle]R[ξC]G-NH2; thioether N-14)
6.76 to 30.3 nM | 4.78 to 72.9 nM | – | CCCC[C@H]1C(=O)N(C)[C@@H](CCCC)C(=O)N[C@@H](CCCNC(=N)N)C(=O)N[C@H](C(=O)NCC(N)=O)CSCC(=O)N[C@@H](Cc2ccccc2)C(=O)N(C)[C@@H](C)C(=O)N[C@@H](CC(N)=O)C(=O)N2CCC[C@H]2C(=O)N[C@@H](Cc2cnc[nH]2)C(=O)N[C@@H](CC(C)C)C(=O)N2CCC[C@H]2C(=O)N[C@@H](Cc2c[nH]c3ccccc23)C(=O)N[C@@H](CO)C(=O)N[C@@H](Cc2csc3ccccc23)C(=O)N1C [Example 1015] ({CH2CO}-F[NMeA]NPHLPWS[Bta][NMeNle][NMeNle]RCG-NH2; thioether N-14)
